Where a SMILES comes first, the peptide text is derived from it. Bridges are numbered along the chain shown (N, C = ends).
Molecular target: human CaV2.2 (α1B, β3, α2δ1) (Homo sapiens, UniProt Q00975)
Experiment: cell-based

Chain of human CaV2.2 (α1B, β3, α2δ1) (Q00975 whole entry, looked up): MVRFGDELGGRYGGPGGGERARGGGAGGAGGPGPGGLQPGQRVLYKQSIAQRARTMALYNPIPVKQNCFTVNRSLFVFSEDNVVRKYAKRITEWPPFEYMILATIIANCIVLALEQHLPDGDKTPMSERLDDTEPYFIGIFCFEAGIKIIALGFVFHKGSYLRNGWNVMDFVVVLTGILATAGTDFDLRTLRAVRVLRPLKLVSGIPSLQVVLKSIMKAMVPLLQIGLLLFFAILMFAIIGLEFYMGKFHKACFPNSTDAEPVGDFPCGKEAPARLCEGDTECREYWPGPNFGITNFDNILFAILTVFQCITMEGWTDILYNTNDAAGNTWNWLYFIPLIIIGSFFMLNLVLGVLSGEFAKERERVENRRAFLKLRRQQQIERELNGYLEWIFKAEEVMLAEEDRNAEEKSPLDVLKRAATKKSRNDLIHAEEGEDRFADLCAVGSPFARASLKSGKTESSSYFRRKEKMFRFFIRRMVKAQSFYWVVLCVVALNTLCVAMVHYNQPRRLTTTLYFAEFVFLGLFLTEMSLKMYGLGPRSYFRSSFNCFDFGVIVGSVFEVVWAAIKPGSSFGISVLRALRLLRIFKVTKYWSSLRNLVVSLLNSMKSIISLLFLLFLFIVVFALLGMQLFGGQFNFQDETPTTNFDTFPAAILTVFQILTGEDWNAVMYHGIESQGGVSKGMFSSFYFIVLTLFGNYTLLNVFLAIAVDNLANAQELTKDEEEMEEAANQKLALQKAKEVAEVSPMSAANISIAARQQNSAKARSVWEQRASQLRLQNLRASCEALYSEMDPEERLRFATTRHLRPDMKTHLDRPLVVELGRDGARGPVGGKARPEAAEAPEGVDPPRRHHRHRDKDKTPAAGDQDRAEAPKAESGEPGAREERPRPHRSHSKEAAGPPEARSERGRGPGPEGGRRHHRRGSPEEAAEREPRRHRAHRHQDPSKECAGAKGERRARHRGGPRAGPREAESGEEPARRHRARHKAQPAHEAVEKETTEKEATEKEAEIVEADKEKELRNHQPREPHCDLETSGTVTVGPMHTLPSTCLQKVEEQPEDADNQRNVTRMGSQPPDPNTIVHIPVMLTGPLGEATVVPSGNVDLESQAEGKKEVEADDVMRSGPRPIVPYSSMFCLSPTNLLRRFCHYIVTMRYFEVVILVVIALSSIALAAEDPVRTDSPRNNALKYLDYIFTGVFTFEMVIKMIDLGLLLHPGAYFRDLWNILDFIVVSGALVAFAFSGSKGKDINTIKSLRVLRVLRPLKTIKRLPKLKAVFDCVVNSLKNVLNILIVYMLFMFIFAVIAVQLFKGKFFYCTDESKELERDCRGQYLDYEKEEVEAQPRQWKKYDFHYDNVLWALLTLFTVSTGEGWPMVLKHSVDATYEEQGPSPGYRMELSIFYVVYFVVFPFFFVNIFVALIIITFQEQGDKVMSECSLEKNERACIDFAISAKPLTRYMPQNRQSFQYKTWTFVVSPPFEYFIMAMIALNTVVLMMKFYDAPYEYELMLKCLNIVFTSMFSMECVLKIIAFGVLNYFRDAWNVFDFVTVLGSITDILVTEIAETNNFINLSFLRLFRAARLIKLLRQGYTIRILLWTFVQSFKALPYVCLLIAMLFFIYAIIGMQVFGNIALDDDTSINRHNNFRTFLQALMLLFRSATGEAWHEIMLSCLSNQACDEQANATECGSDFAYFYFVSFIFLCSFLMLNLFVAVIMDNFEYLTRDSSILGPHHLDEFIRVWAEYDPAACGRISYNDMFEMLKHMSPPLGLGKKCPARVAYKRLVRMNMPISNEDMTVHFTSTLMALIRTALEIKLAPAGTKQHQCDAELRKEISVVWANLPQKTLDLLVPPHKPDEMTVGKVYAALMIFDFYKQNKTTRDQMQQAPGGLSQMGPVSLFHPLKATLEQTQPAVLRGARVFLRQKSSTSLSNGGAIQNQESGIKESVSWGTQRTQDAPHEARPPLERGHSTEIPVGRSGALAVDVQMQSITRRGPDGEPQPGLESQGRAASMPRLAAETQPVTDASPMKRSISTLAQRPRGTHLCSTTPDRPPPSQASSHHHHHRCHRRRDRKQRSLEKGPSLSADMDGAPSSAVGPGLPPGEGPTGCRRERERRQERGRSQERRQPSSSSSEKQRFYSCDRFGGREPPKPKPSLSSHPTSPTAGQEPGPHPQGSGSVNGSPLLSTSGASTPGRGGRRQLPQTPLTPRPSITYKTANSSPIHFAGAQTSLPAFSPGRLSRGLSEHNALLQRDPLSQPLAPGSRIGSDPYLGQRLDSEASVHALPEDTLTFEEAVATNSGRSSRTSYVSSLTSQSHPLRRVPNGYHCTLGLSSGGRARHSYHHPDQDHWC

CC[C@H](C)[C@@H]1NC(=O)[C@@H]2CCCN2C(=O)[C@@H]2CSSC[C@H](NC(=O)[C@@H](N)CC(N)=O)C(=O)N[C@@H](CSSC[C@@H](C(N)=O)NC(=O)[C@H](CC(N)=O)NC(=O)[C@H](Cc3ccccc3)NC(=O)[C@H](CCCNC(=N)N)NC(=O)[C@H](CO)NC(=O)[C@H](Cc3ccc(O)cc3)NC(=O)[C@H](CC(=O)O)NC1=O)C(=O)N[C@@H](CCSC)C(=O)N[C@@H](Cc1ccccc1)C(=O)N[C@@H](Cc1c[nH]cn1)C(=O)N[C@@H]([C@@H](C)O)C(=O)N2 [Vt1.27] (H-NCCMFHTCPIDYSRFNC-NH2; disulfide 2-8, 3-17)
IC50: 398 nM | half-maximum inactivation (V0.5, inact): −69.0 ± 1.0 mV | shift of half-maximum inactivation (V0.5, inact): 3 mV | τoff (off kinetics of inhibition): 2.7 ± 0.15 s | τon (on kinetics of inhibition): 4.5 ± 0.48 s
